# In publication PMC12396409, “Screening and hit evaluation of a microbial metabolite library against the pathogenic Plasmodium falciparum and Toxoplasma gondii parasites” (International Journal for Parasitology: Drugs and Drug …, 2025):
# Where two headings read alike, the source gives them in different places.
# Tests used:
# [1] = tested on: P. falciparum 3D7 parasites; experiment: P. falciparum growth inhibition assay, 2-cycle (120 h treatment), delayed-death screen and dose-response; assay type: cell-based, Plasmodium falciparum; details: for activity at 2 µg/mL: Plasmodium falciparum
# [2] = tested on: T. gondii RH strain (RH-Tub-eYFP) tachyzoites; experiment: microbe, parasite or virus in culture; assay type: cell-based, Toxoplasma gondii
# [3] = tested on: P. falciparum 3D7 parasites; experiment: P. falciparum growth inhibition assay, 1-cycle (72 h treatment), SYBR DNA staining (library screen at 2 μg/mL and dose-response); assay type: cell-based, Plasmodium falciparum; details: for activity at 2 µg/mL: Plasmodium falciparum
# [4] = P. falciparum, 120 h, screen at 2 μg/mL, replicate 1
# [5] = P. falciparum, 120 h, screen at 2 μg/mL, replicate 2
# [6] = T. gondii, 72 h, screen at 2 μg/mL, replicate 1
# [7] = T. gondii, 72 h, screen at 2 μg/mL, replicate 2
# [8] = P. falciparum, 72 h, screen at 2 μg/mL, replicate 1
# [9] = P. falciparum, 72 h, screen at 2 μg/mL, replicate 2
# [10] = Toxoplasma gondii, 72 h, T. gondii, 72 h, screen at 2 μg/mL, replicate 1; read-out: Tg_72h_%Growth_Rep1
# [11] = Toxoplasma gondii, 72 h, T. gondii, 72 h, screen at 2 μg/mL, replicate 2; read-out: Tg_72h_%Growth_Rep2
# [12] = P. falciparum, 120 h, parasite screen 2 μg/mL, % growth, replicate 1
# [13] = P. falciparum, 120 h, parasite screen 2 μg/mL, % growth, replicate 2
# [14] = T. gondii, 72 h, parasite screen 2 μg/mL, % growth, replicate 1
# [15] = T. gondii, 72 h, parasite screen 2 μg/mL, % growth, replicate 2
# [16] = P. falciparum, 72 h, parasite screen 2 μg/mL, % growth, replicate 1
# [17] = P. falciparum, 72 h, parasite screen 2 μg/mL, % growth, replicate 2
# [18] = 3D7, P. falciparum, 120 h, screen at 2 μg/mL, replicate 1, read-out: Pf_120h_%Growth_Rep1
# [19] = 3D7, P. falciparum, 120 h, screen at 2 μg/mL, replicate 2, read-out: Pf_120h_%Growth_Rep2
# [20] = 3D7, P. falciparum, 72 h, screen at 2 μg/mL, replicate 1, read-out: Pf_72h_%Growth_Rep1
# [21] = 3D7, P. falciparum, 72 h, screen at 2 μg/mL, replicate 2, read-out: Pf_72h_%Growth_Rep2
# [22] = library screen at 2 μg/mL, 72 h, % growth, replicate 1
# [23] = library screen at 2 μg/mL, 72 h, % growth, replicate 2
compound,measurement,setting,value
CCCCCCCCCC(=O)N[C@H]1CCOC1=O [Decanoyl-L-homoserine lactone],Pf_120h_%Growth_Rep1,[1]; [4],108.94%
same,Pf_120h_%Growth_Rep2,[1]; [5],93.89%
same,Tg_72h_%Growth_Rep1,[2]; [6],132.23%
same,Tg_72h_%Growth_Rep2,[2]; [7],94.38%
same,Pf_72h_%Growth_Rep1,[3]; [8],85.38%
same,Pf_72h_%Growth_Rep2,[3]; [9],85.76%
N#Cc1cn([C@@H]2O[C@H](CO)[C@@H](O)[C@H]2O)c2ncnc(N)c12 [Toyocamycin],activity at 2 µg/mL,"[1]; 3D7, 120 h, P. falciparum, 120 h, screen at 2 μg/mL, replicate 1, read-out: Pf_120h_%Growth_Rep1",25.6%
same,activity at 2 µg/mL,"[1]; 3D7, 120 h, P. falciparum, 120 h, screen at 2 μg/mL, replicate 2, read-out: Pf_120h_%Growth_Rep2",6.44%
same,percent parasite growth at 2 µg/mL,[2]; [10],0.78%
same,percent parasite growth at 2 µg/mL,[2]; [11],1.19%
same,activity at 2 µg/mL,"[3]; 3D7, 72 h, P. falciparum, 72 h, screen at 2 μg/mL, replicate 1, read-out: Pf_72h_%Growth_Rep1",2.78%
same,activity at 2 µg/mL,"[3]; 3D7, 72 h, P. falciparum, 72 h, screen at 2 μg/mL, replicate 2, read-out: Pf_72h_%Growth_Rep2",4.02%
COc1cc(/C=N/O)nc(-c2ccccn2)c1 [Caerulomycin],Pf_120h_%Growth_Rep1,[1]; [4],2.50%
same,Pf_120h_%Growth_Rep2,[1]; [5],-6.36%
same,Tg_72h_%Growth_Rep1,[2]; [6],2.08%
same,Tg_72h_%Growth_Rep2,[2]; [7],0.20%
same,Pf_72h_%Growth_Rep1,[3]; [8],5.29%
same,Pf_72h_%Growth_Rep2,[3]; [9],5.34%
COc1cc(C[C@H]2C(=O)OC[C@@H]2Cc2ccc3c(c2)OCO3)ccc1O [Pluviatolide],Pf_120h_%Growth_Rep1,[1]; [12],90.86%
same,Pf_120h_%Growth_Rep2,[1]; [13],133.22%
same,Tg_72h_%Growth_Rep1,[2]; [14],140.42%
same,Tg_72h_%Growth_Rep2,[2]; [15],93.56%
same,Pf_72h_%Growth_Rep1,[3]; [16],81.43%
same,Pf_72h_%Growth_Rep2,[3]; [17],88.63%
CCCCCCCCCCCCCCCC(=O)OC[C@@H](NC(=O)C(Cl)Cl)[C@H](O)c1ccc([N+](=O)[O-])cc1 [Chloramphenicol palmitate],activity at 2 µg/mL,[1]; [18],101%
same,activity at 2 µg/mL,[1]; [19],90.8%
same,percent parasite growth at 2 µg/mL,[2]; [10],153%
same,percent parasite growth at 2 µg/mL,[2]; [11],98.2%
same,activity at 2 µg/mL,[3]; [20],83.7%
same,activity at 2 µg/mL,[3]; [21],81.8%
C=CC(C)(C)[C@@]12C[C@H]3C(=O)N/C(=C/c4c[nH]cn4)C(=O)N3[C@@H]1Nc1ccccc12 [Roquefortine C],activity at 2 µg/mL,"[1]; 3D7, P. falciparum, 120 h, parasite screen 2 μg/mL, % growth, replicate 1, read-out: Pf_120h_%Growth_Rep1",73.1%
same,activity at 2 µg/mL,"[1]; 3D7, P. falciparum, 120 h, parasite screen 2 μg/mL, % growth, replicate 2, read-out: Pf_120h_%Growth_Rep2",98.8%
same,percent parasite growth at 2 µg/mL,"[2]; Toxoplasma gondii; T. gondii, 72 h, parasite screen 2 μg/mL, % growth, replicate 1; read-out: Tg_72h_%Growth_Rep1",112%
same,percent parasite growth at 2 µg/mL,"[2]; Toxoplasma gondii; T. gondii, 72 h, parasite screen 2 μg/mL, % growth, replicate 2; read-out: Tg_72h_%Growth_Rep2",89.5%
same,activity at 2 µg/mL,"[3]; 3D7, P. falciparum, 72 h, parasite screen 2 μg/mL, % growth, replicate 1, read-out: Pf_72h_%Growth_Rep1",76.2%
same,activity at 2 µg/mL,"[3]; 3D7, P. falciparum, 72 h, parasite screen 2 μg/mL, % growth, replicate 2, read-out: Pf_72h_%Growth_Rep2",78.8%
CC[C@H]1OC(=O)[C@H](C)[C@@H](O[C@H]2C[C@@](C)(OC)[C@@H](O)[C@H](C)O2)[C@H](C)[C@@H](O[C@@H]2O[C@H](C)C[C@H](N(C)C)[C@H]2O)[C@](C)(OC)C[C@@H](C)C(=O)[C@H](C)[C@@H](O)[C@]1(C)O [Clarithromycin],activity at 2 µg/mL,[1]; [18],31.2%
same,activity at 2 µg/mL,[1]; [19],16.9%
same,percent parasite growth at 2 µg/mL,[2]; [10],40.9%
same,percent parasite growth at 2 µg/mL,[2]; [11],40.8%
same,activity at 2 µg/mL,[3]; [20],74.8%
same,activity at 2 µg/mL,[3]; [21],62.6%
C=CC(C)(C)[C@@]12C[C@H]3C(=O)N4[C@@H](C[C@@]5(C(C)(C)C=C)c6ccccc6N[C@@H]45)C(=O)N3[C@@H]1Nc1ccccc12 [Amauromine],activity at 2 µg/mL,"[1]; 3D7, 120 h, library screen at 2 μg/mL, 120 h, % growth, replicate 1, read-out: Pf_120h_%Growth_Rep1",7.96%
same,activity at 2 µg/mL,"[1]; 3D7, 120 h, library screen at 2 μg/mL, 120 h, % growth, replicate 2, read-out: Pf_120h_%Growth_Rep2",0.67%
same,percent parasite growth at 2 µg/mL,"[2]; Toxoplasma gondii, 72 h, library screen at 2 μg/mL, 72 h, % growth, replicate 1; read-out: Tg_72h_%Growth_Rep1",139%
same,percent parasite growth at 2 µg/mL,"[2]; Toxoplasma gondii, 72 h, library screen at 2 μg/mL, 72 h, % growth, replicate 2; read-out: Tg_72h_%Growth_Rep2",104%
same,activity at 2 µg/mL,"[3]; 3D7, 72 h, library screen at 2 μg/mL, 72 h, % growth, replicate 1, read-out: Pf_72h_%Growth_Rep1",3.52%
same,activity at 2 µg/mL,"[3]; 3D7, 72 h, library screen at 2 μg/mL, 72 h, % growth, replicate 2, read-out: Pf_72h_%Growth_Rep2",3.82%
CC1(C)CCCC2(C)c3cnncc3CCC12 (stereo not drawn) [Polygodial pyridazine],Pf_120h_%Growth_Rep1,[1]; [12],58.21%
same,Pf_120h_%Growth_Rep2,[1]; [13],140.85%
same,Tg_72h_%Growth_Rep1,[2]; [14],119.26%
same,Tg_72h_%Growth_Rep2,[2]; [15],96.17%
same,Pf_72h_%Growth_Rep1,[3]; [16],71.42%
same,Pf_72h_%Growth_Rep2,[3]; [17],85.26%
CCCC(=O)OC1C(C)OC(OC2C(C)OC(OC3C(CC=O)CC(C)C(O)C=CC=CCC(C)OC(=O)CC(O)C3OC)C(O)C2N(C)C)CC1(C)O (stereo not drawn) [BIA-L1357],Pf_120h_%Growth_Rep1,"[1]; P. falciparum 3D7, 120 h, library screen at 2 μg/mL, % growth, replicate 1",3.21%
same,Pf_120h_%Growth_Rep2,"[1]; P. falciparum 3D7, 120 h, library screen at 2 μg/mL, % growth, replicate 2",21.14%
same,Tg_72h_%Growth_Rep1,"[2]; T. gondii RH, 72 h, library screen at 2 μg/mL, % growth, replicate 1",30.88%
same,Tg_72h_%Growth_Rep2,"[2]; T. gondii RH, 72 h, library screen at 2 μg/mL, % growth, replicate 2",21.24%
same,Pf_72h_%Growth_Rep1,"[3]; P. falciparum 3D7, 72 h, library screen at 2 μg/mL, % growth, replicate 1",53.81%
same,Pf_72h_%Growth_Rep2,"[3]; P. falciparum 3D7, 72 h, library screen at 2 μg/mL, % growth, replicate 2",78.28%
Cinnamycin,Pf_120h_%Growth_Rep1,[1]; [4],137.57%
same,Pf_120h_%Growth_Rep2,[1]; [5],92.38%
same,Tg_72h_%Growth_Rep1,[2]; [6],85.83%
same,Tg_72h_%Growth_Rep2,[2]; [7],93.54%
same,Pf_72h_%Growth_Rep1,[3]; [8],85.92%
same,Pf_72h_%Growth_Rep2,[3]; [9],85.03%
C[C@H]1CCCC(=O)CCC/C=C/c2cc(O)cc(O)c2C(=O)O1 [Zearalenone],activity at 2 µg/mL,[1]; [18],88.9%
same,activity at 2 µg/mL,[1]; [19],64.3%
same,percent parasite growth at 2 µg/mL,"[2]; Toxoplasma gondii; T. gondii, 72 h, screen at 2 μg/mL, replicate 1; read-out: Tg_72h_%Growth_Rep1",104%
same,percent parasite growth at 2 µg/mL,"[2]; Toxoplasma gondii; T. gondii, 72 h, screen at 2 μg/mL, replicate 2; read-out: Tg_72h_%Growth_Rep2",74%
same,activity at 2 µg/mL,[3]; [20],89.4%
same,activity at 2 µg/mL,[3]; [21],99.7%
CO[C@H]1/C=C/C=C/C=C/C[C@H](OC(=O)[C@@H](C)NC(=O)C2CCCCC2)[C@H](C)[C@@H](O)/C(C)=C\CCC2=CC(=O)C=C(NC(=O)C1)C2=O [Ansatrienin A],Pf_120h_%Growth_Rep1,"[1]; library screen at 2 μg/mL, 120 h, % growth, replicate 1",4.00%
same,Pf_120h_%Growth_Rep2,"[1]; library screen at 2 μg/mL, 120 h, % growth, replicate 2",-9.91%
same,Tg_72h_%Growth_Rep1,[2]; [22],38.64%
same,Tg_72h_%Growth_Rep2,[2]; [23],44.79%
same,Pf_72h_%Growth_Rep1,[3]; [22],2.60%
same,Pf_72h_%Growth_Rep2,[3]; [23],3.94%
CCCCCCC(=O)CCCCCC/C=C/C[C@@H](O)[C@H](O)[C@@](N)(CO)C(=O)O [BIA-M1219],Pf_120h_%Growth_Rep1,"[1]; P. falciparum 3D7, 120 h, parasite screen at 2 μg/mL, % growth, replicate 1",68.80%
same,Pf_120h_%Growth_Rep2,"[1]; P. falciparum 3D7, 120 h, parasite screen at 2 μg/mL, % growth, replicate 2",36.84%
same,Tg_72h_%Growth_Rep1,"[2]; T. gondii, 72 h, parasite screen at 2 μg/mL, % growth, replicate 1",113.89%
same,Tg_72h_%Growth_Rep2,"[2]; T. gondii, 72 h, parasite screen at 2 μg/mL, % growth, replicate 2",86.95%
same,Pf_72h_%Growth_Rep1,"[3]; P. falciparum 3D7, 72 h, parasite screen at 2 μg/mL, % growth, replicate 1",77.20%
same,Pf_72h_%Growth_Rep2,"[3]; P. falciparum 3D7, 72 h, parasite screen at 2 μg/mL, % growth, replicate 2",44.93%
